The text below walks through data of patent US20060216774A1 (priority 2003, published 2006).

The subject of data set [1] is O=C(O)CC(C(=O)O)C(O)C(=O)O. Nature of the data set: purified protein, by the assay type. As to conditions: other: Lineweaver-Burke plot and Cornish-Bowden direct linear plot.
The target of data set [2] is icl1 (isocitrate lyase) (Mycobacterium tuberculosis, UniProt P9WKK7). Conditions: read-out: Km for icl1; substrate isocitrate; cited from earlier work.
The target of data set [3] is icl2 (isocitrate lyase) (Mycobacterium tuberculosis, UniProt Q8VJU4). As to conditions: read-out: Km for icl2; substrate isocitrate; cited from earlier work.
icl2 (isocitrate lyase), sequence (Q8VJU4 whole entry): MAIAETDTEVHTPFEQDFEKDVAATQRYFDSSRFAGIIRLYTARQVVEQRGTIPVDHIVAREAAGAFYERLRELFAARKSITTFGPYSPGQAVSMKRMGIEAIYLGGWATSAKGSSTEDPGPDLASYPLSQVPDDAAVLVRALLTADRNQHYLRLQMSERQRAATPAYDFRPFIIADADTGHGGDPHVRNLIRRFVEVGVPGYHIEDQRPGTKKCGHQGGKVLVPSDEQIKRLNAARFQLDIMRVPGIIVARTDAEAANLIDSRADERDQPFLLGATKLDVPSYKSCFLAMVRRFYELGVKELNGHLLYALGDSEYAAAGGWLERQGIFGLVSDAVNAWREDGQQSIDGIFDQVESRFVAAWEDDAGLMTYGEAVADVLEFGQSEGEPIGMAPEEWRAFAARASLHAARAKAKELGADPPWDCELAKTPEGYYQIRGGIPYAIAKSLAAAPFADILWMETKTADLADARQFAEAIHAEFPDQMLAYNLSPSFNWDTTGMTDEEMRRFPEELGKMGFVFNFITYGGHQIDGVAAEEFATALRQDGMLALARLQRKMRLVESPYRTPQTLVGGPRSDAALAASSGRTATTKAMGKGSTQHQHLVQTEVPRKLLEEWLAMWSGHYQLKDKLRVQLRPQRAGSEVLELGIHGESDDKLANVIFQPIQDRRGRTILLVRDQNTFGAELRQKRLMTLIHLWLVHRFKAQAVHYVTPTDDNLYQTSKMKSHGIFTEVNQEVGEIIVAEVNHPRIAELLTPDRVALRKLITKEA
Data set [4] concerns the target isocitrate lyase (icl) (Escherichia coli, UniProt P0A9G6). Conditions: read-out: Km of icl; E. coli, substrate isocitrate; cited from earlier work.

isocitrate lyase (icl), sequence (P0A9G6 whole entry): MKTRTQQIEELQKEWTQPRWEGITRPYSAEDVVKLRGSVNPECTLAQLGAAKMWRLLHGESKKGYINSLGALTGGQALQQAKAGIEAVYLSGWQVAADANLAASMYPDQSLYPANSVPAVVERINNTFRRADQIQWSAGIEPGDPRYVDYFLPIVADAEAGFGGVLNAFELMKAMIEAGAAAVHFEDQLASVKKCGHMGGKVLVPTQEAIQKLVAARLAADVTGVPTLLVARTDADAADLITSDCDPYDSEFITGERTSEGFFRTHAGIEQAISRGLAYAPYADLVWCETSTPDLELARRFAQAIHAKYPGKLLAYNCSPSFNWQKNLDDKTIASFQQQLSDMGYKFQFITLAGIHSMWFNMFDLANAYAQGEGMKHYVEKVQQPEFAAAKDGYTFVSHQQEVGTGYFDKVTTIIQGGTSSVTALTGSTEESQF
icl1 (isocitrate lyase), sequence (P9WKK7 whole entry): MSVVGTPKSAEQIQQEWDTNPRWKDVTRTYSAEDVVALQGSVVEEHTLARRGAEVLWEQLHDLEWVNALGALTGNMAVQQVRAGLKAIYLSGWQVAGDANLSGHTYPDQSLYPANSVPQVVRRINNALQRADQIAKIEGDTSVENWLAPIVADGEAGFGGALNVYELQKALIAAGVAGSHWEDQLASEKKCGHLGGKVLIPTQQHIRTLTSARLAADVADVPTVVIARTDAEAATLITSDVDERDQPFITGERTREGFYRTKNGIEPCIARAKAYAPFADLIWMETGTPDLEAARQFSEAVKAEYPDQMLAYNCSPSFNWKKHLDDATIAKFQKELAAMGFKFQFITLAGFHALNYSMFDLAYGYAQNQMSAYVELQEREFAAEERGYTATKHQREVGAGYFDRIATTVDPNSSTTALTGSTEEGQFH

The Km is the concentration of substrate that gives half-maximal velocity. Turning to “icd1 (isocitrate dehydrogenase, Rv 3339c) (Mycobacterium tuberculosis H37Rv)”, the Km in data set [1] is 12 µM.
In the case of `O=C(O)CC(C(=O)O)C(O)C(=O)O` (stereo not shown) [isocitrate], the Km in data set [2] was about 115 µM; in data set [3], about 1500 µM; in data set [4], 604 µM.
